Results taken from the supplement of paper PMC10307832.

Key:
Experiment in all cases: relative viability (nuclei count vs DMSO), 5 days (fraction); higher = more cells survive
Quizartinib = compound: CC(C)(C)c1cc(NC(=O)Nc2ccc(-c3cn4c(n3)sc3cc(OCCN5CCOCC5)ccc34)cc2)no1 [Quizartinib]
Method in brief: (§1)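 Viability was read as treated-well nuclei divided by vehicle-well nuclei, using the median across plates. Lung cancer cell lines in 1536-well plates were kept overnight at 37 °C, pinned with five √10-spaced library-drug doses, and after 5 days were Hoechst-stained, imaged at 4× and counted in MetaXpress. Plates passed only with control CV below 25% and at least one doubling.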

YM155 = compound: COCC[n+]1c2c(n(Cc3cnccn3)c1C)C(=O)c1ccccc1C2=O [YM155]
Method in brief: as §1

YM155 + Navitoclax = compound: COCC[n+]1c2c(n(Cc3cnccn3)c1C)C(=O)c1ccccc1C2=O [YM155] + CC1(C)CCC(c2ccc(Cl)cc2)=C(CN2CCN(c3ccc(C(=O)NS(=O)(=O)c4ccc(N[C@H](CCN5CCOCC5)CSc5ccccc5)c(S(=O)(=O)C(F)(F)F)c4)cc3)CC2)C1 [Navitoclax] (partner 0.5 µM)
Method in brief: (§2)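 Relative viability equals treated-well nuclei counts divided by vehicle-well nuclei counts. Counts came from 4× images of lung cancer cell lines grown in 1536-well plates for 5 days after pin-tool dosing on the day after seeding. Dosing used one drug alone or a fixed anchor-drug dose plus five library-drug doses (not always all listed) in √10 steps, and values are medians of duplicate plates.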

Quizartinib + Trametinib = compound: CC(C)(C)c1cc(NC(=O)Nc2ccc(-c3cn4c(n3)sc3cc(OCCN5CCOCC5)ccc34)cc2)no1 [Quizartinib] + CC(=O)Nc1cccc(-n2c(=O)n(C3CC3)c(=O)c3c(Nc4ccc(I)cc4F)n(C)c(=O)c(C)c32)c1 [Trametinib] (partner 0.02 µM)
Method in brief: as §2

Row | Cell Line | relative viability (Quizartinib; 0.001 µM) | relative viability (Quizartinib; 0.003162 µM) | relative viability (Quizartinib; 0.01 µM) | relative viability (Quizartinib; 0.03162 µM) | relative viability (Quizartinib; 0.1 µM) | relative viability (YM155; 0.002 µM) | relative viability (YM155; 0.006325 µM) | relative viability (YM155; 0.02 µM) | relative viability (YM155; 0.06325 µM) | relative viability (YM155 + Navitoclax; first compound 0.002 µM) | relative viability (YM155 + Navitoclax; first compound 0.006325 µM) | relative viability (YM155 + Navitoclax; first compound 0.02 µM) | relative viability (YM155 + Navitoclax; first compound 0.06325 µM) | relative viability (Quizartinib + Trametinib; first compound 0.001 µM) | relative viability (Quizartinib + Trametinib; first compound 0.003162 µM) | relative viability (Quizartinib + Trametinib; first compound 0.01 µM) | relative viability (Quizartinib + Trametinib; first compound 0.03162 µM) | relative viability (Quizartinib + Trametinib; first compound 0.1 µM)
1 | NCI-H1437 | 0.942 | 0.963 | 0.973 | 0.822 | 0.849 | 0.89 | 0.96 | 0.983 | 0.826 | 1.07 | 1.08 | 1.09 | 1.01 | 0.458 | 0.482 | 0.492 | 0.49 | 0.346
2 | NCI-H1650 | 0.877 | 0.976 | 0.918 |  | 1 | 0.867 | 0.921 | 0.863 | 0.739 | 1.23 | 1.08 | 0.835 | 0.23 | 0.608 | 0.662 | 0.556 |  | 0.564
3 | NCI-H1651 | 0.88 | 0.885 | 1.06 | 0.924 | 0.988 | 0.929 | 0.992 | 0.974 | 0.998 | 1.22 | 0.995 | 1.08 | 0.606 | 0.715 | 0.785 | 0.898 | 0.797 | 0.859
4 | NCI-H1666 | 0.86 | 1.01 | 1 | 0.845 | 1.02 | 0.932 | 1 | 1.02 | 0.918 | 0.991 |  | 0.996 | 0.861 | 0.856 | 0.746 | 0.888 | 0.79 | 0.772
5 | NCI-H1734 | 0.924 | 0.959 | 1.03 | 0.943 | 1.01 | 0.995 | 0.956 | 1.01 | 1.1 | 0.867 | 0.88 | 0.835 | 0.876 | 0.604 | 0.64 | 0.78 | 0.571 | 0.698
6 | NCI-H1755 | 0.866 | 0.958 | 0.996 | 1.07 | 0.99 | 0.973 | 0.996 | 0.968 | 1.03 | 0.996 | 0.981 | 0.949 | 1.06 | 0.744 | 0.851 | 0.856 | 0.784 | 0.755
7 | NCI-H1792 | 0.712 | 0.987 | 0.811 | 0.853 | 0.924 | 0.754 | 0.884 | 0.983 | 0.957 | 0.595 | 0.615 | 0.63 | 0.612 | 0.374 | 0.429 | 0.412 | 0.457 | 0.293
8 | NCI-H1793 | 0.838 | 1.01 | 0.839 | 0.853 | 0.925 | 0.706 | 0.936 | 0.908 | 0.869 |  | 0.337 | 0.422 | 0.301 | 0.395 | 0.435 | 0.444 | 0.448 | 0.452
9 | NCI-H1915 | 0.877 | 0.925 | 0.865 | 0.998 | 1.02 | 0.888 | 0.994 | 0.997 | 0.817 | 0.804 | 0.79 | 0.792 | 0.822 | 0.28 | 0.31 | 0.331 | 0.29 | 0.313
10 | NCI-H1944 | 0.938 | 0.918 | 0.889 | 0.918 | 0.944 | 0.957 | 0.889 | 1.02 | 1.03 | 1.05 | 0.983 | 1.05 | 1.17 | 0.453 | 0.405 | 0.419 | 0.448 | 0.313
11 | NCI-H1975 | 0.853 | 0.891 | 0.966 | 1.03 | 1.01 | 0.826 | 0.883 | 0.921 | 0.679 | 1.09 | 0.97 | 1.08 | 0.626 | 0.285 | 0.381 | 0.287 | 0.435 | 0.322
12 | NCI-H1993 | 0.948 | 1 | 1.02 | 1.04 | 1.11 | 0.904 | 0.927 | 0.771 | 0.577 | 0.968 | 0.951 | 0.847 | 0.795 | 0.445 | 0.46 | 0.576 | 0.619 | 0.527
13 | NCI-H2009 | 0.903 | 0.937 | 0.995 | 1.02 | 0.96 | 0.976 | 0.992 | 1.02 | 0.836 | 1.16 | 1.13 | 1.06 | 0.567 | 0.266 | 0.251 | 0.218 | 0.246 | 0.247
14 | NCI-H2023 | 0.881 | 0.999 | 0.938 |  | 1.01 | 0.872 | 1.01 | 0.866 | 0.71 | 1.04 | 1.07 | 0.987 | 0.261 | 0.643 | 0.504 | 0.533 |  | 0.615
15 | NCI-H2085 | 0.95 | 0.939 | 1.02 | 0.943 | 0.976 | 0.954 | 0.986 | 0.922 | 0.636 | 1.06 | 0.989 | 0.99 | 0.674 | 0.62 | 0.528 | 0.567 | 0.531 | 0.515
16 | NCI-H2087 | 0.85 | 0.784 | 1.24 | 1.09 | 1.11 | 1.07 | 1.03 | 1.1 | 0.856 | 1.03 | 0.875 | 0.969 | 0.816 | 0.233 | 0.217 | 0.223 | 0.202 | 0.19
17 | NCI-H2126 | 0.981 | 1.01 | 1.01 | 1.05 | 1.08 | 0.972 | 1.03 | 0.991 | 1.05 | 0.866 | 0.877 | 0.871 | 0.875 | 0.575 | 0.552 | 0.604 | 0.53 | 0.492
18 | NCI-H2170 | 0.97 | 0.944 | 1.04 | 1.04 | 0.995 | 0.922 | 1.05 | 0.936 | 1.05 | 0.545 | 0.572 | 0.524 | 0.692 | 0.868 | 0.907 | 0.92 | 1.01 | 0.947
19 | NCI-H2228 | 0.856 | 0.854 | 1.15 | 1.13 | 0.927 | 0.834 | 0.887 | 1.02 | 1.11 | 1.03 | 0.487 | 0.956 | 0.857 | 0.513 | 0.593 | 0.484 | 0.436 | 0.511
20 | NCI-H2347 | 0.961 | 1.06 | 1.07 | 0.965 | 1.12 | 0.928 | 0.994 | 1.07 | 0.868 | 0.756 | 0.779 | 0.83 | 0.46 | 0.249 | 0.271 | 0.267 | 0.229 | 0.287
21 | NCI-H2405 | 0.986 | 1.03 | 0.955 | 0.958 | 1.06 | 0.952 | 0.903 | 0.956 | 0.595 | 0.891 | 0.602 | 0.699 | 0.226 | 0.623 | 0.621 | 0.599 | 0.57 | 0.691
22 | NCI-H3122 | 0.885 | 0.977 | 1.07 | 1.01 | 0.982 | 0.984 | 0.992 | 1.01 | 0.976 | 0.969 | 1.04 | 1.02 | 1.05 | 0.21 | 0.276 | 0.286 | 0.275 | 0.219
23 | PC-3 [JPC-3] | 0.978 | 1.02 | 1.04 | 0.852 | 1.08 | 1.01 | 1.07 | 1.1 | 1 | 0.867 | 0.847 | 0.871 | 0.887 | 0.672 | 0.754 | 0.705 | 0.663 | 0.643
24 | PC-14 | 0.884 | 0.985 | 1.09 | 0.833 | 1.18 | 0.939 | 1.02 | 1.03 | 0.931 | 1.02 | 1.06 | 0.997 | 0.982 | 0.692 | 0.726 | 0.977 |  | 0.836
25 | RERF-LC-KJ | 0.954 | 0.926 | 1.03 | 0.99 | 0.915 | 1 | 0.973 | 1.01 | 1.01 | 1.04 | 1.07 | 0.974 | 1.06 | 0.797 | 0.849 | 0.942 | 0.62 | 0.844
26 | SK-LU-1 | 0.88 | 0.861 | 1.11 | 0.999 | 1.06 | 0.86 | 1.06 | 1.07 | 0.91 | 1.05 | 0.559 | 1.27 | 0.418 | 0.464 | 0.372 | 0.515 | 0.394 | 0.434
27 | SK-MES-1 | 0.944 | 0.96 | 1.09 | 0.732 | 0.924 | 0.956 | 1.02 | 0.942 | 0.692 | 1.3 | 1.36 | 1.28 | 1.07 | 0.587 | 0.542 | 0.553 | 0.478 | 0.512
28 | SW 1573 | 0.87 | 0.971 | 1.09 | 0.481 | 1.08 | 1.02 | 0.939 | 0.803 | 0.394 | 1.05 | 0.959 | 1.04 | 0.555 | 0.594 | 0.47 | 0.711 |  | 0.655
29 | UMC-11 | 0.723 | 0.945 | 0.983 | 0.966 | 0.988 | 0.889 | 0.998 | 1.04 | 0.959 | 0.293 | 0.332 | 0.29 | 0.375 | 0.417 | 0.722 | 0.714 | 0.728 | 0.644
